Assay results published in the supplement of paper PMC10307832.

Experiments:
Test in all cases: relative viability (nuclei count vs DMSO), 5 days (fraction); higher = more cells survive
[1] = compound: CCN(CCO)CCCC(C)Nc1ccnc2cc(Cl)ccc12 [Hydroxychloroquine] + CC(C)C[C@H](NC(=O)[C@H](Cc1ccccc1)NC(=O)c1cnccn1)B(O)O [Bortezomib] (partner 0.002 µM)
Summary of the method: (§1)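 Cells from lung cancer lines were seeded into 1536-well plates and, one day later, dosed by pin tool. Treatments were either a single drug or a fixed dose of an anchor drug with five library-drug doses (not always all listed) in √10 steps. After 5 days, nuclei were stained in a one-step fixation (final 0.05% Triton X-100, 1% formaldehyde, 1 ug/ml Hoechst) and counted on 4× images, and relative viability is the treated-to-vehicle nuclei ratio, as the median of duplicate plates.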

[2] = compound: CCN(CCO)CCCC(C)Nc1ccnc2cc(Cl)ccc12 [Hydroxychloroquine] + CC1(C)CCC(c2ccc(Cl)cc2)=C(CN2CCN(c3ccc(C(=O)NS(=O)(=O)c4ccc(N[C@H](CCN5CCOCC5)CSc5ccccc5)c(S(=O)(=O)C(F)(F)F)c4)cc3)CC2)C1 [Navitoclax] (partner 0.5 µM)
Summary of the method: as §1

[3] = compound: CCN(CCO)CCCC(C)Nc1ccnc2cc(Cl)ccc12 [Hydroxychloroquine] + Cc1nc(Nc2ncc(C(=O)Nc3c(C)cccc3Cl)s2)cc(N2CCN(CCO)CC2)n1 [Dasatinib] (partner 0.075 µM)
Summary of the method: as §1

[4] = compound: CCN(CCO)CCCC(C)Nc1ccnc2cc(Cl)ccc12 [Hydroxychloroquine] + CCNC(=O)c1noc(-c2cc(C(C)C)c(O)cc2O)c1-c1ccc(CN2CCOCC2)cc1 [Luminespib] (partner 0.01 µM)
Summary of the method: as §1

Cell Line	relative viability ([1]; first compound 0.5 µM)	relative viability ([1]; first compound 1.581 µM)	relative viability ([1]; first compound 5 µM)	relative viability ([1]; first compound 15.81 µM)	relative viability ([1]; first compound 50 µM)	relative viability ([2]; first compound 0.5 µM)	relative viability ([2]; first compound 1.581 µM)	relative viability ([2]; first compound 5 µM)	relative viability ([2]; first compound 15.81 µM)	relative viability ([2]; first compound 50 µM)	relative viability ([3]; first compound 0.5 µM)	relative viability ([3]; first compound 1.581 µM)	relative viability ([3]; first compound 5 µM)	relative viability ([3]; first compound 15.81 µM)	relative viability ([3]; first compound 50 µM)	relative viability ([4]; first compound 0.5 µM)	relative viability ([4]; first compound 1.581 µM)	relative viability ([4]; first compound 5 µM)	relative viability ([4]; first compound 15.81 µM)	relative viability ([4]; first compound 50 µM)
NCI-H1734	0.98	0.918	1.03	0.918	1.01	0.913	0.812	0.86	0.988	0.948	0.399	0.374	0.506	0.452	0.504	0.179	0.197	0.199	0.169	0.183
NCI-H1755	0.955	0.868	0.918	0.927	0.953	1.03	0.905	0.933	0.972	0.926	0.498	0.381	0.422	0.392	0.394	0.489	0.403	0.517	0.354	0.432
NCI-H1792	0.979	0.955	1.02	1.05	1.17	0.509	0.607	0.686	0.367	0.451	0.922	0.936	0.759	0.825	0.711	0.434	0.503	0.472	0.698	0.442
NCI-H1915	1.07	0.953	1.02	0.923	1.03	0.783	0.773	0.84	0.831	0.76	0.337	0.281	0.305	0.331	0.305	0.756	0.788	0.94	1.12	0.915
NCI-H1975	0.343	0.333	0.342	0.379	0.354	1.08	1.05	1.15	1.03	1.22	0.404	0.376	0.322	0.502	0.412	0.296	0.142	0.257	0.281	0.234
NCI-H1993	1.01	0.884	1.04	1.13	1.03	0.931	0.779	0.879	1.03	0.893	0.597	0.699	0.87	0.547	0.566	0.943	0.789	0.846	0.864	0.928
NCI-H2009	1.02	1.04	0.956	0.963	1.07	1.16	1.22	1.21	1.13	1.25	0.326	0.253	0.312	0.298	0.329	0.94	0.964	1.09	1.1	0.999
NCI-H2023	1.06	0.942	1.01	0.964	1.03	1.09	0.985	1.03	0.974	1.03	0.624	0.478	0.563	0.542	0.617	0.75	0.657	0.784	0.899	0.642
